Measurements reported in ChEMBL document CHEMBL1150009, “Quinine analogs as non-peptide calcitonin gene-related peptide (CGRP) receptor antagonists” (Bioorg Med Chem Lett, 1997).

What was measured:
[1] = target: T1, Calcitonin gene-related peptide type 1 receptor (Homo sapiens, UniProt O60894+Q16602); experiment: Displacement of [125I]hCGRP human Calcitonin gene-related peptide type receptor expressed in SK-N-MC neuroblastoma cell membranes
[2] = test system: SK-N-MC; experiment: In vitro inhibition of CGRP-mediated cAMP production in SK-N-MC cells; type: functional, cell-based; conditions: Homo sapiens
[3] = target: G-protein coupled receptor 182 (Homo sapiens) (UniProt O15218); experiment: Compound (up to 30 uM) was tested in vitro for percent effectiveness for ligand binding to Adrenomedullin receptor
Chain of G-protein coupled receptor 182 (Homo sapiens) (O15218 whole entry): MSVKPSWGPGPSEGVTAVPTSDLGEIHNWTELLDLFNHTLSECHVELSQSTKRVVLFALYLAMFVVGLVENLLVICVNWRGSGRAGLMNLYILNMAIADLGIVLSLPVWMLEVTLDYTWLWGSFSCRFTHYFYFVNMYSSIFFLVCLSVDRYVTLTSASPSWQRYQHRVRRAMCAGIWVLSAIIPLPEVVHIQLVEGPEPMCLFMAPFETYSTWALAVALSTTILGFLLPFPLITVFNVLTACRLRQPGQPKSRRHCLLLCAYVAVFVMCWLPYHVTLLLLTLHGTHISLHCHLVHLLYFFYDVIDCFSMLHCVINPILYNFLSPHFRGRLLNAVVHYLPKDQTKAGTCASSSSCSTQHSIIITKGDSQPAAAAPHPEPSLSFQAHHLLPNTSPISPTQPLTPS

[4] = target: T2, Type-1 angiotensin II receptor A (Rattus norvegicus) (UniProt P25095); experiment: Compound (up to 30 uM) was tested in vitro for percent effectiveness for ligand binding to Angiotensin II receptor
T2 sequence (whole entry): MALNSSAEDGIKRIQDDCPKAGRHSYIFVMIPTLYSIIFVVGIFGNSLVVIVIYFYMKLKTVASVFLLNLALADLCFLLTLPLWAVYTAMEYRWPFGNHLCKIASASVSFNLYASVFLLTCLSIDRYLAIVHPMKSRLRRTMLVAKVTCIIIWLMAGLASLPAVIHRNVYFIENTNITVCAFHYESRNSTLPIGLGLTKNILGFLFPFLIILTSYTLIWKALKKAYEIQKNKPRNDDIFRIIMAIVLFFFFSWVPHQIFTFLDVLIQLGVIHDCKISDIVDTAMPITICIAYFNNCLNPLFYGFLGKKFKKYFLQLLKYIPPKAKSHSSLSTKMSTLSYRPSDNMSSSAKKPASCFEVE

[5] = target: T1, Calcitonin gene-related peptide type 1 receptor; experiment: Compound was tested in vitro for its binding affinity towards recombinant human Calcitonin gene-related peptide type receptor (membranes of HEK293 cells) using [125I]hCGRP as radioligand; type: cell membranes
[6] = Inhibitory concentration in vitro using porcine lung membrane (to identify non-peptide antagonist of the CGRP receptor); type: functional, cell membranes, Sus scrofa
[7] = target: T3, Endothelin receptor type B (Homo sapiens) (UniProt P24530); experiment: Compound (up to 30 uM) was tested in vitro for percent effectiveness for ligand binding to ETB receptors
T3 sequence (whole entry): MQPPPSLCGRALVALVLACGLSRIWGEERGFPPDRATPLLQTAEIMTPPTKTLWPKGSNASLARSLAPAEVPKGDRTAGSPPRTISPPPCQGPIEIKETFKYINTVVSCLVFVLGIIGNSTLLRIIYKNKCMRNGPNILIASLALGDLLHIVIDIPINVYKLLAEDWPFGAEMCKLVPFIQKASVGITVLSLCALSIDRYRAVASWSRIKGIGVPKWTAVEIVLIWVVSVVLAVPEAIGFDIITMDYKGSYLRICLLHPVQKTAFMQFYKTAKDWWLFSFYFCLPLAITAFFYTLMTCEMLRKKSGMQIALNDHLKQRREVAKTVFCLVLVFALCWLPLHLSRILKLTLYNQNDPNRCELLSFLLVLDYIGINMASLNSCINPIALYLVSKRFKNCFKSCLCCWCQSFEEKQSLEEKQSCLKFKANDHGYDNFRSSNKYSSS

[8] = target: T4, Endothelin-1 receptor (Homo sapiens) (UniProt P25101); experiment: Compound (up to 30 uM) was tested in vitro for percent effectiveness for ligand binding to ETA receptors
T4 sequence (whole entry): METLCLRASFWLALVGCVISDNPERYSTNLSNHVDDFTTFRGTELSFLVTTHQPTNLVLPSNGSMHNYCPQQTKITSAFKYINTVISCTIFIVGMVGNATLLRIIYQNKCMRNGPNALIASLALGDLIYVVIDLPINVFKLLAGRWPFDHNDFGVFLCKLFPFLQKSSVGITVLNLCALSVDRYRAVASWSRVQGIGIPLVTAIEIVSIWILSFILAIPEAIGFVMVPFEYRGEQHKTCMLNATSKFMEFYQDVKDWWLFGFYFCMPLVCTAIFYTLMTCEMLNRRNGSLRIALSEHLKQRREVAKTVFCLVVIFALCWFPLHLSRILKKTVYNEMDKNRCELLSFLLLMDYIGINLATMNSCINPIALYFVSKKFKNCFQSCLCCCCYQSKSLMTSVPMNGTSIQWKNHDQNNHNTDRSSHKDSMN

[9] = target: T5, Vasoactive intestinal peptide receptor (Gallus gallus) (UniProt A5A0U0); experiment: Compound (up to 30 uM) was tested in vitro for percent effectiveness for ligand binding to Vasoactive intestinal peptide receptor
T5 sequence (whole entry): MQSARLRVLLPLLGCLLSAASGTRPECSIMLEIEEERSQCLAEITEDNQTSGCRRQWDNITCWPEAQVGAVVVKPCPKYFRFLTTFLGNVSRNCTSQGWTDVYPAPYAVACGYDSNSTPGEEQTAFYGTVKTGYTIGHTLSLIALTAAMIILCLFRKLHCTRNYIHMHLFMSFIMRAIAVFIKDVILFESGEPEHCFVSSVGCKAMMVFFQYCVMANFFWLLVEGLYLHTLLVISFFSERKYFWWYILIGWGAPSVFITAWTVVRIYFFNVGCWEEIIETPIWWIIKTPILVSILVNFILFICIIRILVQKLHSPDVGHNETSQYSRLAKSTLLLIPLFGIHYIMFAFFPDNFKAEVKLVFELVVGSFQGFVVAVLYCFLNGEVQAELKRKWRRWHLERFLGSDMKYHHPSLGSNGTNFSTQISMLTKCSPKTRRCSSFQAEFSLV

[10] = Compound (up to 30 uM) was tested in vitro for percent effectiveness for ligand binding to GLP-1 receptors

T1 sequence (Q16602 whole entry, one chain of several): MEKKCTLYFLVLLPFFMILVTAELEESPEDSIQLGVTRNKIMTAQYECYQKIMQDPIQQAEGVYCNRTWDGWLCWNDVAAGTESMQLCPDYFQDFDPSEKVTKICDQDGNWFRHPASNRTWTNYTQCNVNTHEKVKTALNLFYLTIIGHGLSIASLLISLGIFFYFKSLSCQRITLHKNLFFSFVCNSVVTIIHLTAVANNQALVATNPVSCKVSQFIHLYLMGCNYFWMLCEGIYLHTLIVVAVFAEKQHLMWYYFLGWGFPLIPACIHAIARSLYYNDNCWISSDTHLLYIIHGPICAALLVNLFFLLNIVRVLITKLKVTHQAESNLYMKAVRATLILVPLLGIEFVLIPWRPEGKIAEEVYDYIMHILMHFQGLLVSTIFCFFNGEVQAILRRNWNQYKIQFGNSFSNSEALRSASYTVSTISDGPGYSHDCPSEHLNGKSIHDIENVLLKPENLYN

SMILES	IC50 [1] [µM]	IC50 [2] [µM]	further results
CCC1CN2CCC1CC2[C@H](O)c1cc(-c2ccc(F)c(Cl)c2)nc2ccc(OC)cc12 (stereo partly specified)	17	14	
CCC1CN2CCC1CC2[C@H](O)c1cc(-c2ccc(Oc3ccccc3)cc2)nc2ccc(OC)cc12 (stereo partly specified)	12	22	
CCC1CN2CCC1CC2[C@H](O)c1cc(-c2cccc3ccccc23)nc2ccc(OC)cc12 (stereo partly specified)	33	23	
CCC1CN2CCC1CC2[C@H](O)c1cc(-c2ccc(OC)cc2)nc2ccc(OC)cc12 (stereo partly specified)	> 100		
CCC1CN2CCC1CC2[C@H](O)c1cc(-c2ccc(Cl)cc2Cl)nc2ccc(OC)cc12 (stereo partly specified)	37	28	
CCC1CN2CCC1CC2[C@H](O)c1cc(-c2ccc(C(F)(F)F)cc2)nc2ccc(OC)cc12 (stereo partly specified)	5.2	24	
CCC1CN2CCC1CC2[C@H](O)c1cc(-c2ccc3c(c2)OCO3)nc2ccc(OC)cc12 (stereo partly specified)	74	60	
CCC1CN2CCC1CC2[C@H](O)c1cc(-c2cccc(C(F)(F)F)c2)nc2ccc(OC)cc12 (stereo partly specified)	9.9	20	
CCC1CN2CCC1CC2[C@H](O)c1cc(-c2ccccc2)nc2ccc(OC)cc12 (stereo partly specified)	96	65	
CCC1CN2CCC1CC2[C@H](O)c1cc(-c2cccc(N)c2)nc2ccc(OC)cc12 (stereo partly specified)	> 100	> 100	
CCC1CN2CCC1CC2[C@H](O)c1cc(-c2ccc(Cl)cc2)nc2ccc(OC)cc12 (stereo partly specified)	5.9	26	inhibition [3]: < 20%; inhibition [4]: < 20%; IC50 [5]: 5.5 µM; IC50 [6]: 6 µM; inhibition [7]: < 20%; inhibition [8]: < 20%; inhibition [9]: < 20%; inhibition [10]: < 20%
CCC1CN2CCC1CC2[C@H](O)c1cc(-c2cccc([N+](=O)[O-])c2)nc2ccc(OC)cc12 (stereo partly specified)	41		
CCC1CN2CCC1CC2[C@H](O)c1cc(-c2ccsc2)nc2ccc(OC)cc12 (stereo partly specified)	> 100		
